Test [1] addresses T1, PRMT5 (Homo sapiens, UniProt O14744).
T1 construct: purchased Viva (custom protein)
Briefly: PRMT5 IC50 assay in the presence of SAM as cofactor. It counts as biochemical. In outline:
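IC50 against PRMT5 determined with SAM as cofactor, with no cofactor, and with MTA as cofactor. Ki derived as IC50/1.5 for the SAM assay and IC50/13.5 for the MTA assay; SAM Ki to MTA Ki ratio also reported.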

Test [2] has as its target T1, PRMT5. Put plainly: PRMT5 IC50 assay with no cofactor. The conditions noted are these: read-out: No Co-factor IC50. It counts as biochemical. A digest of the protocol: (§1)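 For the SAM-containing format, dividing IC50 by 1.5 yields Ki; for the MTA-containing format the divisor is 13.5. A third format without cofactor gives IC50 alone.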
Test [3] deals with T1, PRMT5. Put plainly: PRMT5 IC50 assay in the presence of MTA as cofactor. It counts as biochemical. The conditions noted are these: for IC50: PRMT5, MTA as cofactor; for SAM/MTA Ratio: ratio between Ki in the presence of SAM and Ki in the presence of MTA. A digest of the protocol: as §1
A further test has as its system HAP1 MTAP-intact. Put plainly: SDMA in-cell western assay, HAP1 MTAP-intact cell line. It counts as cell-based. The conditions noted are these: Homo sapiens. In outline:
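IC50 values come from SDMA in-cell western staining of HAP1 cells. The MTAP-intact line carries endogenous MTAP, while its MTAP-deleted counterpart lacks MTAP entirely. A selectivity ratio of at least 3 fold marks a compound as MTAP-selective.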

In another test the test system is HAP1 MTAP-deleted. Put plainly: SDMA in-cell western assay, HAP1 MTAP-deleted cell line. The conditions noted are these: for IC50: Homo sapiens, HAP1 MTAP-deleted cell line; for MTAP Intact/Deleted Ratio: IC50 ratio HAP1 MTAP-intact / HAP1 MTAP-deleted. It counts as cell-based. In outline:
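Readout is cellular SDMA signal by in-cell western, with IC50 values derived from it. The cells are MTAP-null HAP1, matched to an isogenic MTAP-intact HAP1 line.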

Structures are written as SMILES.

T1 sequence (O14744 whole entry): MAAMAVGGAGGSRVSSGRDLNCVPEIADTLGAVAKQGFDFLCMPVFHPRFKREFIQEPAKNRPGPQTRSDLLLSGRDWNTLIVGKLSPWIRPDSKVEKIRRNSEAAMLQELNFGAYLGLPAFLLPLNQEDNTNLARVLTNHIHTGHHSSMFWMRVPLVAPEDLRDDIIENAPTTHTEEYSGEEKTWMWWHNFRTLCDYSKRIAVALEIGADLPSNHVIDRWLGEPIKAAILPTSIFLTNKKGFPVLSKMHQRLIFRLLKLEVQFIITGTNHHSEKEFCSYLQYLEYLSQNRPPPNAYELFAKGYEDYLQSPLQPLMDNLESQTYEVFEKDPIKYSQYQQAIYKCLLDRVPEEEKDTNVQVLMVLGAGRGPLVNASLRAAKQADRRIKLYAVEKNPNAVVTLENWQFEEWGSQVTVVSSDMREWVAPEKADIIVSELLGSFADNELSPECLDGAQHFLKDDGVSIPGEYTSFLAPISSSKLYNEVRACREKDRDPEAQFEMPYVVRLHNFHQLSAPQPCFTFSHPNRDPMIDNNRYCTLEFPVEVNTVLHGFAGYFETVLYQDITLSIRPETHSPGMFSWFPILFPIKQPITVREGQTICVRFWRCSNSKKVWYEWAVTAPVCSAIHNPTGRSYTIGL
T1 sequence (Q9BQA1 whole entry partner): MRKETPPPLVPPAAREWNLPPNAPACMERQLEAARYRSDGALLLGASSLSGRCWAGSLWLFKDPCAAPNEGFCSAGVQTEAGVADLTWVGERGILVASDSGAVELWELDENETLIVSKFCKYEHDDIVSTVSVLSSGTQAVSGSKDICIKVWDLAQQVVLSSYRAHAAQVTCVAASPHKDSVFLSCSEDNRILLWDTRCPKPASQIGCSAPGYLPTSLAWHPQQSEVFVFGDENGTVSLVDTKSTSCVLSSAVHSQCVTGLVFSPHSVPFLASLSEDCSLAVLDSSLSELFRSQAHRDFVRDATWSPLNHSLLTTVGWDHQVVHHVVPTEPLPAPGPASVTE

In the case of `CC(C)N1CCN(c2nc(NC3COC3)cc(C(=O)NC[C@H](O)CN3CCc4cc(OCc5cnco5)ccc4C3)n2)CC1` [Compound 296, (S)—N-(2-hydroxy-3-(6-(oxazol-5-ylmethoxy)-3N-dihydroisoquinolin-2(1H)-yl)propyl)-2-(4-isopropylpiperazin-1-yl)-6-(oxetan-3-ylamino)pyrimidine-4-carboxamide], the IC50 (in general, the concentration that inhibits the measured activity by half) at PRMT5 [1] is 50 to 500 nM; at PRMT5 [2], 500 to 5000 nM; on PRMT5 [3], 50 to 500 nM; in the test with HAP1 MTAP-intact, at least 10000 nM; in the test on HAP1 MTAP-deleted it was 1000 to 10000 nM. Further, at PRMT5 [3], the “SAM/MTA Ratio” value is “A (a Ki ratio greater than or equal to 10 fold between the Ki in the presence of SAM and the Ki in the presence of MTA)”. The “MTAP Intact/Deleted Ratio” value with HAP1 MTAP-deleted is “C* (an IC50 ratio of less than 3 fold between the IC50 in the HAP1 MTAP-intact cell line and the HAP1 MTAP-deleted cell line)”.
As to `O=C(NC[C@H](O)CN1CCc2c(ccc(OCc3cnco3)c2Cl)C1)c1cc(NC2COC2)nc(N2CCN(C(=O)C3CC3)CC2)n1` [Compound 297, (S)—N-(3-(5-chloro-6-(oxazol-5-ylmethoxy)-3N-dihydroisoquinolin-2(1H)-yl)-2-hydroxypropyl)-2-(4-(cyclopropanecarbonyl)piperazin-1-yl)-6-(oxetan-3-ylamino)pyrimidine-4-carboxamide], the half-inhibitory concentration (IC50) at PRMT5 [1] was 50 to 500 nM; on PRMT5 [2], 500 to 5000 nM; on PRMT5 [3], 50 to 500 nM; with HAP1 MTAP-intact, at least 10000 nM; with HAP1 MTAP-deleted it was 1000 to 10000 nM. Further, the “SAM/MTA Ratio” value on PRMT5 [3] was “A (a Ki ratio greater than or equal to 10 fold between the Ki in the presence of SAM and the Ki in the presence of MTA)”. Moreover, the “MTAP Intact/Deleted Ratio” value with HAP1 MTAP-deleted is “C* (an IC50 ratio of less than 3 fold between the IC50 in the HAP1 MTAP-intact cell line and the HAP1 MTAP-deleted cell line)”.
Turning to `O=C(NC[C@H](O)CN1CCc2c(ccc(OCc3cnco3)c2Cl)C1)c1cc(NC2COC2)nc(N2CCOCC2)n1` [Compound 298, (S)—N-(3-(5-chloro-6-(oxazol-5-ylmethoxy)-3,4-dihydroisoquinolin-2(1H)-yl)-2-hydroxypropyl)-2-morpholino-6-(oxetan-3-ylamino)pyrimidine-4-carboxamide], the concentration for half-maximal inhibition (IC50) on PRMT5 [1] was 500 to 5000 nM; on PRMT5 [2] it was at least 5000 nM; on PRMT5 [3], 500 to 5000 nM; with HAP1 MTAP-intact, at least 10000 nM; in the test with HAP1 MTAP-deleted it was 1000 to 10000 nM. At PRMT5 [3], the “SAM/MTA Ratio” value was “A (a Ki ratio greater than or equal to 10 fold between the Ki in the presence of SAM and the Ki in the presence of MTA)”. In the test with HAP1 MTAP-deleted, the “MTAP Intact/Deleted Ratio” value is “C* (an IC50 ratio of less than 3 fold between the IC50 in the HAP1 MTAP-intact cell line and the HAP1 MTAP-deleted cell line)”.
In the case of `CCN1CCN(c2cc(C(=O)NC[C@H](O)CN3CCc4c(ccc(OCc5cnco5)c4Cl)C3)cc(NC3CCC3)n2)CC1` [Compound 299, (S)—N-(3-(5-chloro-6-(oxazol-5-ylmethoxy)-3N-dihydroisoquinolin-2(1H)-yl)-2-hydroxypropyl)-2-(cyclobutylamino)-6-(4-ethylpiperazin-1-yl)isonicotinamide], the concentration for half-maximal inhibition (IC50) is 50 to 500 nM at PRMT5 [1]; 500 to 5000 nM at PRMT5 [2]; 50 to 500 nM at PRMT5 [3]; at least 10000 nM in the test on HAP1 MTAP-intact; 1000 to 10000 nM in the test with HAP1 MTAP-deleted. For the same compound, the “SAM/MTA Ratio” value on PRMT5 [3] was “A (a Ki ratio greater than or equal to 10 fold between the Ki in the presence of SAM and the Ki in the presence of MTA)”. Also, the “MTAP Intact/Deleted Ratio” value in the test with HAP1 MTAP-deleted is “B* (an IC50 ratio greater than or equal to 3 fold but lower than 10 fold between the IC50 in the HAP1 MTAP-intact cell line and the HAP1 MTAP-deleted cell line)”.
As to `CC(=O)N1CCN(c2nc(NC3COC3)cc(C(=O)NC[C@H](O)CN3CCc4c(ccc(OCc5cnco5)c4Cl)C3)n2)CC1` [Compound 300, (S)-2-(4-acetylpiperazin-1-yl)-N-(3-(5-chloro-6-(oxazol-5-ylmethoxy)-3,4-dihydroisoquinolin-2(1H)-yl)-2-hydroxypropyl)-6-(oxetan-3-ylamino)pyrimidine-4-carboxamide], the IC50 was 50 to 500 nM on PRMT5 [1]; 500 to 5000 nM on PRMT5 [2]; 50 to 500 nM on PRMT5 [3]; at least 10000 nM with HAP1 MTAP-intact; at least 10000 nM with HAP1 MTAP-deleted. Besides, the “SAM/MTA Ratio” value at PRMT5 [3] was “A (a Ki ratio greater than or equal to 10 fold between the Ki in the presence of SAM and the Ki in the presence of MTA)”. In addition, the “MTAP Intact/Deleted Ratio” value in the test on HAP1 MTAP-deleted was “C* (an IC50 ratio of less than 3 fold between the IC50 in the HAP1 MTAP-intact cell line and the HAP1 MTAP-deleted cell line)”.
With `O=C(NC[C@H](O)CN1CCc2c(ccc(OCc3cnco3)c2Cl)C1)c1ccc(OC2CCN(Cc3ccncc3)CC2)cc1` [Compound 301, (S)—N-(3-(5-chloro-6-(oxazol-5-ylmethoxy)-3,4-dihydroisoquinolin-2(1H)-yl)-2-hydroxypropyl)-4-((1-(pyridin-4-ylmethyl)piperidin-4-yl)oxy)benzamide], the IC50 on PRMT5 [1] is 50 to 500 nM; at PRMT5 [2], 500 to 5000 nM; on PRMT5 [3], 50 to 500 nM; in the test on HAP1 MTAP-intact, at least 10000 nM; with HAP1 MTAP-deleted it was 1000 to 10000 nM. In addition, the “SAM/MTA Ratio” value on PRMT5 [3] was “A (a Ki ratio greater than or equal to 10 fold between the Ki in the presence of SAM and the Ki in the presence of MTA)”. For the same compound, in the test on HAP1 MTAP-deleted, the “MTAP Intact/Deleted Ratio” value is “C* (an IC50 ratio of less than 3 fold between the IC50 in the HAP1 MTAP-intact cell line and the HAP1 MTAP-deleted cell line)”.
For `COc1cc(C(=O)NC[C@H](O)CN2CCc3c(ccc(OCc4cnco4)c3Cl)C2)cc(NC2CCC2)n1` [Compound 302, (S)—N-(3-(5-chloro-6-(oxazol-5-ylmethoxy)-3N-dihydroisoquinolin-2(1H)-yl)-2-hydroxypropyl)-2-(cyclobutylamino)-6-methoxyisonicotinamide], the half-maximal inhibitory concentration (IC50) on PRMT5 [1] was 500 to 5000 nM; at PRMT5 [2], at least 5000 nM; on PRMT5 [3], 50 to 500 nM; in the test with HAP1 MTAP-intact, at least 10000 nM; in the test on HAP1 MTAP-deleted, at least 10000 nM. Further, on PRMT5 [3], the “SAM/MTA Ratio” value was “A (a Ki ratio greater than or equal to 10 fold between the Ki in the presence of SAM and the Ki in the presence of MTA)”. In addition, in the test with HAP1 MTAP-deleted, the “MTAP Intact/Deleted Ratio” value was “C* (an IC50 ratio of less than 3 fold between the IC50 in the HAP1 MTAP-intact cell line and the HAP1 MTAP-deleted cell line)”.
For the compound `CCN(C)c1nc(NC2COC2)cc(C(=O)NC[C@H](O)CN2CCc3c(ccc(OCc4cnco4)c3Cl)C2)n1` [Compound 303], the IC50 was 50 to 500 nM at PRMT5 [1]; at least 5000 nM on PRMT5 [2]; 50 to 500 nM on PRMT5 [3]; at least 10000 nM in the test on HAP1 MTAP-intact; 1000 to 10000 nM in the test with HAP1 MTAP-deleted. Moreover, on PRMT5 [3], the “SAM/MTA Ratio” value is “A (a Ki ratio greater than or equal to 10 fold between the Ki in the presence of SAM and the Ki in the presence of MTA)”. Moreover, in the test with HAP1 MTAP-deleted, the “MTAP Intact/Deleted Ratio” value is “C* (an IC50 ratio of less than 3 fold between the IC50 in the HAP1 MTAP-intact cell line and the HAP1 MTAP-deleted cell line)”.
Turning to `O=C(NC[C@H](O)CN1CCc2cc(OCc3cnco3)ccc2C1)c1cc(NC2COC2)nc(N2CCOCC2)n1` [Compound 304, (S)—N-(2-hydroxy-3-(6-(oxazol-5-ylmethoxy)-3N-dihydroisoquinolin-2(1H)-yl)propyl)-2-morpholino-6-(oxetan-3-ylamino)pyrimidine-4-carboxamide], the IC50 at PRMT5 [1] was in the range of 50 to 500 nM; at PRMT5 [2], 500 to 5000 nM; at PRMT5 [3], 50 to 500 nM; in the test with HAP1 MTAP-intact, 1000 to 10000 nM; with HAP1 MTAP-deleted, 1000 to 10000 nM. Besides, the “MTAP Intact/Deleted Ratio” value with HAP1 MTAP-deleted is “C* (an IC50 ratio of less than 3 fold between the IC50 in the HAP1 MTAP-intact cell line and the HAP1 MTAP-deleted cell line)”.

Values taken from US11986471B2, “Compounds and methods of use” (Tango Therapeutics, Inc., priority 2018, dated 2024).
